pIC50: −log10 of the molar value.
Columns and labels:
HeLa = assay: MTS proliferation assay; assay type: cell-based, human; settings: 72 h
Summary of the method: (§1)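 Compounds at final 10/3/1/0.3 μM (added in complete medium, ≤5% DMSO); 72 h, culture conditions; + MTS, 3 h; A492.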

Jurkat = assay: MTS proliferation assay; assay type: cell-based, human; settings: 72 h
Summary of the method: as §1

Jily = assay: MTS proliferation assay; assay type: cell-based; settings: 72 h
Summary of the method: as §1

MRC5 = assay: MTS proliferation assay; assay type: cell-based; settings: MRC5, 72 h
Summary of the method: as §1

[1] = Hoechst 33342 nuclear staining; assay type: cell-based; settings: for Hoechst 33342 nuclear staining score, H460: H460 cells; for Hoechst 33342 nuclear staining score, HeLa: HeLa cells; for Hoechst 33342 nuclear staining score, Jily: Jily cells; for Hoechst 33342 nuclear staining score, Jurkat: Jurkat cells; for Hoechst 33342 nuclear staining score, MRC5: MRC5 cells;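 for all read-outs here: apoptotic nuclei scored 0 none 1 weak under 50% of cells 2 strong over 50% of cells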
Summary of the method: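 After a further 30 min incubation, plates were inspected on a standard inverted fluorescence microscope. The fraction of apoptotic nuclei and other apoptosis-specific morphology were scored as 0 for no activity, 1 for weak activity in less than 50% of the cells, and 2 for strong activity in more than 50% of the cells.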

## COc1cc(-c2cc(-c3cccnc3)cn2S(=O)(=O)c2cccs2)cc(OC)c1OC [Example 90]
HeLa
  pIC50: < 6.00
Jurkat
  pIC50: > 6.00
Jily
  pIC50: > 6.00
MRC5
  pIC50: < 6.00
[1]; conc 0.1
  Hoechst 33342 nuclear staining score, H460: 0
  Hoechst 33342 nuclear staining score, HeLa: 0
  Hoechst 33342 nuclear staining score, Jily: 0
  Hoechst 33342 nuclear staining score, Jurkat: 0
  Hoechst 33342 nuclear staining score, MRC5: 0
  Hoechst 33342 nuclear staining score, PBLs: 0
[1]; conc 0.3
  Hoechst 33342 nuclear staining score, H460: 0
  Hoechst 33342 nuclear staining score, HeLa: 0
  Hoechst 33342 nuclear staining score, Jily: 0
  Hoechst 33342 nuclear staining score, Jurkat: 0
  Hoechst 33342 nuclear staining score, MRC5: 0
  Hoechst 33342 nuclear staining score, PBLs: 0
[1]; conc 1
  Hoechst 33342 nuclear staining score, H460: 0
  Hoechst 33342 nuclear staining score, HeLa: 0
  Hoechst 33342 nuclear staining score, Jily: 1 (weak activity comprising less than 50% of the cells)
  Hoechst 33342 nuclear staining score, Jurkat: 2 (strong activity comprising more than 50% of the cells)
  Hoechst 33342 nuclear staining score, MRC5: 0
  Hoechst 33342 nuclear staining score, PBLs: 0
[1]; conc 3
  Hoechst 33342 nuclear staining score, H460: 2 (strong activity comprising more than 50% of the cells)
  Hoechst 33342 nuclear staining score, HeLa: 2 (strong activity comprising more than 50% of the cells)
  Hoechst 33342 nuclear staining score, Jily: 1 (weak activity comprising less than 50% of the cells)
  Hoechst 33342 nuclear staining score, Jurkat: 2 (strong activity comprising more than 50% of the cells)
  Hoechst 33342 nuclear staining score, MRC5: 0
  Hoechst 33342 nuclear staining score, PBLs: 0

## COc1ccc(S(=O)(=O)n2cc(-c3ccc(N)nc3)cc2-c2cc(OC)c(OC)c(OC)c2)cc1 [Example 100, 4-(2-Aminopyrid-5-yl)-1-p-methoxyphenylsulfonyl-2-(3,4,5-trimethoxyphenyl)-pyrrole]
HeLa; Homo sapiens
  pIC50: > 6.70
Jurkat; Homo sapiens
  pIC50: > 6.70
Jily
  pIC50: > 6.70
MRC5; Homo sapiens
  pIC50: > 6.70
[1]; conc 0.1
  Hoechst 33342 nuclear staining score, H460: 0
  Hoechst 33342 nuclear staining score, HeLa: 0
  Hoechst 33342 nuclear staining score, Jily: 0
  Hoechst 33342 nuclear staining score, Jurkat: 0
  Hoechst 33342 nuclear staining score, MRC5: 0
  Hoechst 33342 nuclear staining score, PBLs: 0
[1]; conc 0.3
  Hoechst 33342 nuclear staining score, H460: 2 (strong activity comprising more than 50% of the cells)
  Hoechst 33342 nuclear staining score, HeLa: 2 (strong activity comprising more than 50% of the cells)
  Hoechst 33342 nuclear staining score, Jily: 2 (strong activity comprising more than 50% of the cells)
  Hoechst 33342 nuclear staining score, Jurkat: 2 (strong activity comprising more than 50% of the cells)
  Hoechst 33342 nuclear staining score, MRC5: 1 (weak activity comprising less than 50% of the cells)
  Hoechst 33342 nuclear staining score, PBLs: 0
[1]; conc 1
  Hoechst 33342 nuclear staining score, H460: 2 (strong activity comprising more than 50% of the cells)
  Hoechst 33342 nuclear staining score, HeLa: 2 (strong activity comprising more than 50% of the cells)
  Hoechst 33342 nuclear staining score, Jily: 2 (strong activity comprising more than 50% of the cells)
  Hoechst 33342 nuclear staining score, Jurkat: 2 (strong activity comprising more than 50% of the cells)
  Hoechst 33342 nuclear staining score, MRC5: 2 (strong activity comprising more than 50% of the cells)
  Hoechst 33342 nuclear staining score, PBLs: 0
[1]; conc 3
  Hoechst 33342 nuclear staining score, H460: 2 (strong activity comprising more than 50% of the cells)
  Hoechst 33342 nuclear staining score, HeLa: 2 (strong activity comprising more than 50% of the cells)
  Hoechst 33342 nuclear staining score, Jily: 2 (strong activity comprising more than 50% of the cells)
  Hoechst 33342 nuclear staining score, Jurkat: 2 (strong activity comprising more than 50% of the cells)
  Hoechst 33342 nuclear staining score, MRC5: 2 (strong activity comprising more than 50% of the cells)
  Hoechst 33342 nuclear staining score, PBLs: 0
